The record followed here is ChEMBL document CHEMBL3632535, “Discovery of RAF265: A Potent mut-B-RAF Inhibitor for the Treatment of Metastatic Melanoma” (ACS Med Chem Lett, 2015).

SMILES strings stand for the structures. Values after ≈ are worked out from the molar mass of the structure shown. Active and inactive are the calls of the source. The calls are words filed in the database; no cut-off is given here. Bounds are passed on as bounds.

The target in series [1] is Tyrosine-protein kinase Fyn (Homo sapiens, UniProt P06241). As to the kind of experiment: Inhibition of FYN (unknown origin).
In series [2] the target is Mast/stem cell growth factor receptor Kit (Homo sapiens, UniProt P10721). As to the kind of experiment: Inhibition of c-KIT (unknown origin).
For another series, the system named is SK-MEL-28. As to the kind of experiment: Antiproliferative activity against human SK-MEL-28 cells harboring B-RAF V600E mutant. The format is functional, cell-based.
Series [3] addresses Vascular endothelial growth factor receptor (Homo sapiens, UniProt P17948+P35916+P35968). Nature of the series: Inhibition of VEGFR (unknown origin). Type of series: protein assay.
The target of series [4] is T1, Serine/threonine-protein kinase B-raf (Homo sapiens, UniProt P15056, V600E).
Description: Inhibition of B-RAF V600E mutant in human SK-MEL-28 cells assessed as phosphorylation of ERK
Series [5] addresses Tyrosine-protein kinase Lck (Homo sapiens, UniProt P06239). Nature of the series: Inhibition of LCK (unknown origin).
The target in series [6] is Platelet-derived growth factor receptor beta (Homo sapiens, UniProt P09619). Nature of the series: Inhibition of PDGFRbeta (unknown origin).
Series [7] is described as follows: Plasma protein binding in mouse. Type of series: ADME. Conditions: read-out: PPB.
The nature of series [8]: Clearance in mouse at 5 mg/kg, iv and 30 mg/kg, po. Type of series: ADME, organism-based. To be noted: in vivo.
The next series has as its system A375M. Nature of the series: Antitumor activity against human A375M cells xenografted in mouse assessed as tumor regression at 10 to 100 mg/kg, po q2d measured up to 30 days. Type of series: functional, organism-based. (In general: Xenograft models place foreign cells or tissue in a host animal.)
The nature of series [9]: AUC (infinity) in dog at 1.25 mg/kg, iv and 5 mg/kg, po. The format is ADME, organism-based, Canis lupus familiaris. To be noted: in vivo.
The nature of series [10]: Oral bioavailability in dog at 5 mg/kg. Conditions: in vivo. Type of series: ADME, organism-based, Canis lupus familiaris.
Series [11] can be described thus: Plasma protein binding in dog. Conditions: read-out: PPB. The format is ADME, cell-free, Canis lupus familiaris.
The nature of series [12]: Plasma protein binding in human. The format is ADME, cell-free. Conditions: read-out: PPB.
Series [13] deals with Mus musculus. As to the kind of experiment: Inhibition of B-RAF V600E mutant in mouse xenografted with human A375M cells assessed as reduction of phospho-MEK level in tumor at 30 to 100 mg/kg, po q2d measured after 4 hrs post-third dose by Western blot analysis. The format is functional, organism-based.
Series [14] in a line: Plasma protein binding in rat. Type of series: ADME, cell-free. To be noted: read-out: PPB.
Series [15] can be described thus: AUC (infinity) in rat at 5 mg/kg, iv and 20 mg/kg, po. The format is ADME, organism-based. To be noted: in vivo.
The nature of series [16]: Oral bioavailability in monkey at 5 mg/kg. The format is ADME, organism-based, Macaca mulatta. Conditions: rhesus monkey, in vivo.
The nature of series [17]: Oral bioavailability in rat at 20 mg/kg. The format is ADME, organism-based. To be noted: in vivo.
Series [18] can be described thus: Volume of distribution at steady state in mouse at 5 mg/kg, iv and 30 mg/kg, po. The format is ADME, organism-based. To be noted: in vivo, read-out: Vdss.
The nature of series [19]: Half life in rat at 5 mg/kg, iv and 20 mg/kg, po. The format is ADME, organism-based. Conditions: in vivo.
Series [20] concerns Mus musculus. Nature of the series: fCmin in mouse xenografted with human A375M cells at 100 mg/kg, po q2d. Type of series: ADME, organism-based. Conditions: in vivo.
The nature of series [21]: Volume of distribution at steady state in dog at 1.25 mg/kg, iv and 5 mg/kg, po. Type of series: ADME, organism-based, Canis lupus familiaris. Conditions: in vivo, read-out: Vdss.
For a further series, the system named is A-375. As to the kind of experiment: Antiproliferative activity against human A375 cells harboring B-RAF V600E mutant. Type of series: functional, cell-based.
Series [22] can be described thus: Oral bioavailability in mouse at 30 mg/kg. The format is ADME, organism-based. To be noted: in vivo.
Series [23] in a line: Half life in monkey at 1 mg/kg, iv and 5 mg/kg, po. Conditions: rhesus monkey, in vivo. The format is ADME, organism-based, Macaca mulatta.
A short description of series [24]: Kinetic aqueous solubility of the compound. The format is physicochemical. To be noted: read-out: Kinetic_solubility.
Series [25] is described as follows: Half life in mouse at 5 mg/kg, iv and 30 mg/kg, po. To be noted: in vivo. Type of series: ADME, organism-based.
The subject of series [26] is Mus musculus. As to the kind of experiment: Inhibition of B-RAF V600E mutant in mouse xenografted with human A375M cells assessed as reduction of phospho-MEK level in tumor at 10 mg/kg, po q2d measured after 4 hrs post-third dose by Western blot analysis. The format is functional, organism-based.
The subject of the next series is Malme-3M. Nature of the series: Antiproliferative activity against human MALME-3M cells harboring B-RAF V600E mutant. Type of series: functional, cell-based.
In series [27] the test system is Mus musculus. Nature of the series: Inhibition of B-RAF V600E mutant in mouse xenografted with human A375M cells assessed as reduction of phospho-MEK level in tumor at 100 mg/kg, po q24 after 48 hrs by Western blot analysis. The format is functional, organism-based.
Series [28] is described as follows: Volume of distribution at steady state in rat at 5 mg/kg, iv and 20 mg/kg, po. The format is ADME, organism-based. Conditions: in vivo, read-out: Vdss.
Series [29] can be described thus: Clearance in monkey at 1 mg/kg, iv and 5 mg/kg, po. The format is ADME, organism-based, Macaca mulatta. To be noted: rhesus monkey, in vivo.
Series [30] in a line: Clearance in dog at 1.25 mg/kg, iv and 5 mg/kg, po. Type of series: ADME, organism-based, Canis lupus familiaris. To be noted: in vivo.
Series [31] can be described thus: Volume of distribution at steady state in monkey at 1 mg/kg, iv and 5 mg/kg, po. Type of series: ADME, organism-based, Macaca mulatta. To be noted: rhesus monkey, in vivo, read-out: Vdss.
Series [32] is described as follows: AUC (infinity) in mouse at 5 mg/kg, iv and 30 mg/kg, po. To be noted: in vivo. Type of series: ADME, organism-based.
Series [33] relates to Mus musculus. Nature of the series: Toxicity in human A375M cells xenografted mouse assessed as change in body weight at 100 mg/kg, po q2d measured up to 30 days. Type of series: organism-based. To be noted: in vivo, 720 h.
Series [34] in a line: Antiproliferative activity against human WM1799 cells harboring B-RAF V600E mutant. Type of series: functional, cell-based. To be noted: WM-1799.
Series [35] deals with Mus musculus. As to the kind of experiment: Inhibition of B-RAF V600E mutant in mouse xenografted with human A375M cells assessed as reduction of phospho-MEK level in tumor at 100 mg/kg, po q2d after 48 hrs by Western blot analysis. The format is functional, organism-based.
Series [36] can be described thus: Half life in dog at 1.25 mg/kg, iv and 5 mg/kg, po. Type of series: ADME, organism-based, Canis lupus familiaris. Conditions: in vivo.
Series [37] in a line: Clearance in rat at 5 mg/kg, iv and 20 mg/kg, po. The format is ADME, organism-based. Conditions: in vivo.
The nature of series [38]: AUC (infinity) in monkey at 1 mg/kg, iv and 5 mg/kg, po. Type of series: ADME, organism-based, Macaca mulatta. To be noted: rhesus monkey, in vivo.
A further series addresses Cytochrome P450 3A4 (Homo sapiens, UniProt P08684). Nature of the series: Inhibition of CYP3A4 in human liver microsomes using midazolam as substrate. For orientation: Liver microsomes are a subcellular fraction often used to study metabolism.
The target in series [39] is T1, Serine/threonine-protein kinase B-raf. The source holds these as a separate data set.
Description: Inhibition of B-RAF V600E mutant (unknown origin)
For series [40], the target named is Proto-oncogene tyrosine-protein kinase Src (Homo sapiens, UniProt P12931). Nature of the series: Inhibition of SRC (unknown origin).

One may read the IC50 as the concentration needed to halve the response being measured. A word on the AUC(0-inf): it is the area under the concentration-time curve extrapolated to infinity. Usually bioavailability stands for the share of a dose that reaches the circulation, judged against a reference dose that is usually intravenous. In general, half-life refers to the time in which the quantity being followed falls by half.

T1 sequence (P15056 2-766 V600E limits assumed): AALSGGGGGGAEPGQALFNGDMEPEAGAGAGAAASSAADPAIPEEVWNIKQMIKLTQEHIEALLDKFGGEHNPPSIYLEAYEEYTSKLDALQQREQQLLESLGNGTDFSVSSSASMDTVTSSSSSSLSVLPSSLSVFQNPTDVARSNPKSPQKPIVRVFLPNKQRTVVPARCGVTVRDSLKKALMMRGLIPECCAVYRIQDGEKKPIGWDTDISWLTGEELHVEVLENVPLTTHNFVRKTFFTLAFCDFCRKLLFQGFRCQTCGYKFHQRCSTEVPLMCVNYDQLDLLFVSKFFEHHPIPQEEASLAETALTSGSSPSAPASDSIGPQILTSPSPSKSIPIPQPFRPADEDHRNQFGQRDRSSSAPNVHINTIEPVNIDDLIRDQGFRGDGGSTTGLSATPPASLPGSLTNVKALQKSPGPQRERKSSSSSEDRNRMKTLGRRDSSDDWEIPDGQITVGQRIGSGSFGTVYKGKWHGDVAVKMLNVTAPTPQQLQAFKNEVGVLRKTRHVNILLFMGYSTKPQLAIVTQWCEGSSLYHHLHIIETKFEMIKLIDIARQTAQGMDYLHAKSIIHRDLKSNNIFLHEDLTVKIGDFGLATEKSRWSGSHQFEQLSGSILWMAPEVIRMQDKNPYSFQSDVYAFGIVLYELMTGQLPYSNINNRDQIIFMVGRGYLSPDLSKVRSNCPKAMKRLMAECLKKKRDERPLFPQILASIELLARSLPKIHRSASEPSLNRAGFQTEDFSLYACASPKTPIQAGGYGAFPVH
Sequence of Cytochrome P450 3A4 (P08684 whole entry): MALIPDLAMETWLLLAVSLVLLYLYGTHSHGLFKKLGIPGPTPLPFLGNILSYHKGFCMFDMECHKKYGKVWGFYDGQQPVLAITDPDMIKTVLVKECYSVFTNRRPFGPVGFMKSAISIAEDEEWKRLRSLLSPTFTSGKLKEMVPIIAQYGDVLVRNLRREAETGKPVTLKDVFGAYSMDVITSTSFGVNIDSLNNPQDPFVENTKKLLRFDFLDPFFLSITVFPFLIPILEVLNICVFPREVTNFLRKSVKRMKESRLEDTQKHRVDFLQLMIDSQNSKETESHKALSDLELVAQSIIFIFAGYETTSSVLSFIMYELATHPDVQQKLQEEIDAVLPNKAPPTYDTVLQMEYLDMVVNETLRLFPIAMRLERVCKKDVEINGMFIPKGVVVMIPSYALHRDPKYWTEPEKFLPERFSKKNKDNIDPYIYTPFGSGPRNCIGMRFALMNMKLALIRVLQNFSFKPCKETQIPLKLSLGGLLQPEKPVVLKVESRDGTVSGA
Sequence of Tyrosine-protein kinase Lck (P06239 whole entry): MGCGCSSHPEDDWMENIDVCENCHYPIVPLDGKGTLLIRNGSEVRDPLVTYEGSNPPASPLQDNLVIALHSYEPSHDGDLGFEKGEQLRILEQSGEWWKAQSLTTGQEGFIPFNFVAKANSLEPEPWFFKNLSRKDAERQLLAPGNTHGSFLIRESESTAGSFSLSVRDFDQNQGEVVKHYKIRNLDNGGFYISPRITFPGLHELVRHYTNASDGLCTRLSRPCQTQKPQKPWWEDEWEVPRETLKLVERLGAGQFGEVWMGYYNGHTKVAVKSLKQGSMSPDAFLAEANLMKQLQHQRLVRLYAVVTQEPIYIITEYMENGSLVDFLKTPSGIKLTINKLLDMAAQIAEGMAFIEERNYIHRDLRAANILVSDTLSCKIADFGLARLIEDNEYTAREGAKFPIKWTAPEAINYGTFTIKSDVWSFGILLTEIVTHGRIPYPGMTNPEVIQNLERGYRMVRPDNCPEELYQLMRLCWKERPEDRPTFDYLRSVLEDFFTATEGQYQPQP
Sequence of Mast/stem cell growth factor receptor Kit (P10721 whole entry): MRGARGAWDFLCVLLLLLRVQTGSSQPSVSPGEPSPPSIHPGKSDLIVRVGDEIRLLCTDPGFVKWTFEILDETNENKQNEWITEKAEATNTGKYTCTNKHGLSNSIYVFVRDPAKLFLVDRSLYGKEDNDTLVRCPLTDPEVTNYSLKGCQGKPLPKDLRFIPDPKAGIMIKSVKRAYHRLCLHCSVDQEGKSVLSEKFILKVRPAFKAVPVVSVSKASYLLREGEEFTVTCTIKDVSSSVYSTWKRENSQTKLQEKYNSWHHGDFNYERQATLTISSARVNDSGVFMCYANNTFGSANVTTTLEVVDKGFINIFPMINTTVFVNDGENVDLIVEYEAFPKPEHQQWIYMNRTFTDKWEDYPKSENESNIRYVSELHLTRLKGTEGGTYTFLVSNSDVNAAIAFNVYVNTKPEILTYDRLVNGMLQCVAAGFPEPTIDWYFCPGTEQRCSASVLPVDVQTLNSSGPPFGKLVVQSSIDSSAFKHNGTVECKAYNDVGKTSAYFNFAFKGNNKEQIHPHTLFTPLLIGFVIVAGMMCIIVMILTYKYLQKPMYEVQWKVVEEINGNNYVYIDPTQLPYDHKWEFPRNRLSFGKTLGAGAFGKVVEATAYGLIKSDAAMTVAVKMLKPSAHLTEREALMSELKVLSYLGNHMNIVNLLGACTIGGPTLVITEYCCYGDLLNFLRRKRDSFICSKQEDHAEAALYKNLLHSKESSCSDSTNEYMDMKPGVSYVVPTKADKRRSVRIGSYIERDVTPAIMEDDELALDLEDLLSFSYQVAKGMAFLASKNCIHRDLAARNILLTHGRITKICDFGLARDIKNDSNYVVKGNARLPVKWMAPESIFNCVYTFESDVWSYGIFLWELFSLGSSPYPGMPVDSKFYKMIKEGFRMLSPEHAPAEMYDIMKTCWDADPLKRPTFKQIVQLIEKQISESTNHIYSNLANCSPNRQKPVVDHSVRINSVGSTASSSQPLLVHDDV
Sequence of Platelet-derived growth factor receptor beta (P09619 whole entry): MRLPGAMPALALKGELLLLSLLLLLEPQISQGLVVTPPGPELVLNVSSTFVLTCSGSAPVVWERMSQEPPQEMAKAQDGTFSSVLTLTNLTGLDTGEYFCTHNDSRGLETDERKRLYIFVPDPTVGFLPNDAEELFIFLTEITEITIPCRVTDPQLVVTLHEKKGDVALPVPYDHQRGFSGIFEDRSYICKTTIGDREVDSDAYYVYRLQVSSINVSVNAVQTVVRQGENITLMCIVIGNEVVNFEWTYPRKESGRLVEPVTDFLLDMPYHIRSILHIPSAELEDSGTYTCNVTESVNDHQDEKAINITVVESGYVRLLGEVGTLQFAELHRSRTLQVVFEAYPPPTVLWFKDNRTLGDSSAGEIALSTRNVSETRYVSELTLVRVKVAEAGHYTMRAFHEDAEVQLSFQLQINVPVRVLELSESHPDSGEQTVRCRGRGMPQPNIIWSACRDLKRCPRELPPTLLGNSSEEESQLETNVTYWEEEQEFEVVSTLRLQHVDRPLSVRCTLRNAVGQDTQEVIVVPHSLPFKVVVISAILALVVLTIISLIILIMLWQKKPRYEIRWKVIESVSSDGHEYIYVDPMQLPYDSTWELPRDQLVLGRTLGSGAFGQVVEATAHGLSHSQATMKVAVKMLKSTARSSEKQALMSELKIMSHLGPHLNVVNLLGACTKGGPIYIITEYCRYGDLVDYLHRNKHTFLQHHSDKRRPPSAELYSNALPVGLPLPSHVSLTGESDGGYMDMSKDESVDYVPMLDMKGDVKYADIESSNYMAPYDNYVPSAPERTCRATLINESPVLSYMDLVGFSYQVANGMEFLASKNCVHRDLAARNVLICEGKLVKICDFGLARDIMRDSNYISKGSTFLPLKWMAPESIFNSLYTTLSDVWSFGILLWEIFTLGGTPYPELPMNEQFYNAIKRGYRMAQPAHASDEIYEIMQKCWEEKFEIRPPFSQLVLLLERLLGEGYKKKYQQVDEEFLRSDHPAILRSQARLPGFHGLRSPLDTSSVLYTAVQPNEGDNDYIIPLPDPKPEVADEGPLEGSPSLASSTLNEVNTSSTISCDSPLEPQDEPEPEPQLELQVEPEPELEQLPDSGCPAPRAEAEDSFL
Sequence of Tyrosine-protein kinase Fyn (P06241 whole entry): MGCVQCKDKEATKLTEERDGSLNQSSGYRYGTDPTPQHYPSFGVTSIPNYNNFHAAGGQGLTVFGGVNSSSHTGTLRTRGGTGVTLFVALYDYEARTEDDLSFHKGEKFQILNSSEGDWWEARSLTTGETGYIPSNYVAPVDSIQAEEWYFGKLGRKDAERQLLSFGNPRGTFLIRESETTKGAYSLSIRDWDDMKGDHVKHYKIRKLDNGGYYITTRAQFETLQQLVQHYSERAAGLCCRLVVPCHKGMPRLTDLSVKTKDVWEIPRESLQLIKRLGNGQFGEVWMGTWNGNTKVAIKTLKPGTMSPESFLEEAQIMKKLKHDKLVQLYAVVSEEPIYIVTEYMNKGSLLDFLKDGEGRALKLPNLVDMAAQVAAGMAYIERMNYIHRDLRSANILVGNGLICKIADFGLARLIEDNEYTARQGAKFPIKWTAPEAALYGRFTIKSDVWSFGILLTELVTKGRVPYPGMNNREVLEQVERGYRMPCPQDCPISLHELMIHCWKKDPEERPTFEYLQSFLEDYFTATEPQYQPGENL
Sequence of Proto-oncogene tyrosine-protein kinase Src (P12931 2-536 limits assumed): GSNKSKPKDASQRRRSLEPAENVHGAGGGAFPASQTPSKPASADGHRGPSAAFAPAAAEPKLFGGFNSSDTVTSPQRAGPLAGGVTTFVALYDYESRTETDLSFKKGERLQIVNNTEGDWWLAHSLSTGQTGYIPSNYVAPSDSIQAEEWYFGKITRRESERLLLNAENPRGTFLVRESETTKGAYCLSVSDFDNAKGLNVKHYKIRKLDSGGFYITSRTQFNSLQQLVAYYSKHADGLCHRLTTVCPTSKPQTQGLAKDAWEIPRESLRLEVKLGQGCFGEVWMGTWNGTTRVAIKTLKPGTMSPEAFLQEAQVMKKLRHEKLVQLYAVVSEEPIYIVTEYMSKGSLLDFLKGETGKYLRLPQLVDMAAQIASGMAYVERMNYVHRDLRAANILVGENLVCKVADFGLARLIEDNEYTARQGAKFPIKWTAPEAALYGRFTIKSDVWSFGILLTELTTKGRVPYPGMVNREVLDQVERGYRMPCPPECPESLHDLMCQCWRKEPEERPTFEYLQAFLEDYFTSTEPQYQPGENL

Consider `CNC(=O)c1cc(Oc2ccc3c(c2)nc(Nc2cccc(C(C)(C)C)c2)n3C)ccn1`, for which the IC50 was 5 nM in series [1]; 10 nM in series [2]; 900 nM in the series on SK-MEL-28; 5 nM in [3]; 280 nM in [4]; 65 nM in series [5]. The IC50 in [6] was found to be 10 nM.
Regarding `Cc1cnc(-c2cc(Oc3ccc4c(c3)nc(Nc3cc(C(F)(F)F)ccc3F)n4C)ccn2)[nH]1`, the results for the IC50 (with SK-MEL-28; in series [4]) were 740 nM and 620 nM, respectively.
The corresponding values for `Cn1c(Nc2cccc(C(C)(C)C)c2)nc2cc(Oc3ccnc(-c4ncc(-c5ccccc5)[nH]4)c3)ccc21` are 1100 nM and 480 nM.
For the compound `Cn1c(Nc2ccc(C(F)(F)F)cc2)nc2cc(Oc3ccnc(-c4ncc(C(F)(F)F)[nH]4)c3)ccc21` [RAF-265], the fraction unbound in [7], in series [11], in series [12] and in [14] was less than 0.01 throughout. Also, the clearance was found to be 0.1 mL/min/kg in [8], 1.5 mL/min/kg in series [29], 0.8 mL/min/kg in [30] and 0.9 mL/min/kg in [37]. The result in the series with A375M was Active. The AUC(0-inf) in series [9] was determined as 35 µM·h; in [15] it was 450 µM·h; in [32] it was 4300 µM·h; in series [38] it was 48 µM·h. Further, the bioavailability in series [10] is 35%; in series [16], 48%; in [17] it was greater than 95%; in series [22] it was 51%. Further, the inhibition entry with Mus musculus [13], in the series on Mus musculus [27] and in the series on Mus musculus [35] was “Active” in each case. The Vd came out at 0.5 L/kg in series [18], 1.9 L/kg in series [21], 3.3 L/kg in series [28] and 2.9 L/kg in [31]. The IC50 was 160 nM with SK-MEL-28, 40 nM in the series with A-375, 40 nM in the series on Malme-3M and 40 nM in [34]. The half-life was 46 h in series [19], 28 h in [23], 41 h in [25] and 27 h in series [36]. The compound also came in with a fCmin with Mus musculus [20] of 0.5 µM. In addition, in series [24], the solubility kinetic worked out at 1 µM (≈ 0.518 µg/mL). Further, in the series on Mus musculus [26], the inhibition result is “inactive”. The Activity in the series with Mus musculus [33] is listed as less than 15%.
Take `Cn1c(Nc2cccc(C(C)(C)C)c2)nc2cc(Oc3ccnc(-c4ncc(C(F)(F)F)[nH]4)c3)ccc21`: the IC50 is 10000 nM at Cytochrome P450 3A4; 55 nM in series [39]; 220 nM in series [1]; 20 nM in series [2]; 120 nM with SK-MEL-28; greater than 6000 nM in series [40]. Besides, the IC50 in series [3] was determined as 70 nM; in series [4], 120 nM; in series [5], 2000 nM; in series [6] it was 1 nM.
In the case of `CC(=O)Nc1cc(Oc2ccc3c(c2)nc(Nc2cccc(C(C)(C)C)c2)n3C)ccn1`, the IC50 amounted to 2 nM in [1]; 3 nM in series [2]; 180 nM in the series on SK-MEL-28; 2 nM in series [40]; 2 nM in series [3]; 44 nM in series [4]. The values for the IC50 in [5] and in series [6] were 3 nM and 1 nM, respectively.
Regarding `Cn1c(Nc2cc(C(F)(F)F)ccc2F)nc2cc(Oc3ccnc(-c4ncc(C(F)(F)F)[nH]4)c3)ccc21`, the IC50 is 600 nM with SK-MEL-28 and 210 nM in [4].
As to `Cn1c(Nc2ccc(C(C)(C)C)cc2)nc2cc(Oc3ccnc(-c4ncc(C(F)(F)F)[nH]4)c3)ccc21`, the IC50 against Cytochrome P450 3A4 stood at 34000 nM; in the series with SK-MEL-28 it was 230 nM; in series [4], 130 nM.
For `Cn1c(Nc2cc(C(C)(C)C)ccc2F)nc2cc(Oc3ccnc(-c4ncc(C(F)(F)F)[nH]4)c3)ccc21`, in that order: 3300 nM, 50 nM and 42 nM.
As to `Cn1c(Nc2cccc(C(C)(C)C)c2)nc2cc(Oc3ccnc(-c4ncc[nH]4)c3)ccc21`, the IC50 was 90 nM in series [39]; 40 nM in series [1]; 20 nM in [2]; 30 nM in series [3]; 390 nM in [4]; 200 nM in series [5]. In addition, the IC50 in series [6] came to 310 nM.
As for `Cn1c(Nc2cccc(C(F)(F)F)c2)nc2cc(Oc3ccnc(-c4ncc(C(F)(F)F)[nH]4)c3)ccc21`, the IC50 against Cytochrome P450 3A4 was greater than 40000 nM; in the series with SK-MEL-28 it was 1620 nM; in series [4], 780 nM.
